The data set in a line: Comparative tests for stability of the crystalline form E and other crystalline forms (storage, total impurity and content). To be noted: for Stability compared between solid forms (conclusion from Table 5): stored 1 year at 6° C. and −20° C. Format: physicochemical. The method, then: Comparative tests for stability of the crystalline form E and other crystalline forms. Crystalline form A and crystalline form B of ertapenem sodium were prepared according to the methods disclosed in WO03026572, crystalline form C of ertapenem sodium was prepared according to the method disclosed in WO03027067, crystalline form D of ertapenem sodium was prepared according to the method disclosed in WO2009150630, and amorphous product of ertapenem sodium was prepared according the method disclosed in CN1752090A. The above-mentioned crystalline forms A, B, C, D, the amorphous solid of ertapenem sodium, and the crystalline form E prepared according to Example 1 were stored for 1 year under refrigerating at 6° C. and freezing at −20° C., and were sampled at month 1, month 3, month 6, month 9, and month 12, respectively, and the total impurity and content of the reserved samples were tested, and the specific data are shown in Table 5: […]

`C[C@@H](O)[C@H]1C(=O)N2C(C(=O)[O-])=C(S[C@@H]3CN[C@H](C(=O)Nc4cccc(C(=O)O)c4)C3)[C@H](C)[C@H]12.[Na+]` (relative stereo) [Crystalline form E, (1R,5S,6S,8R,2S*,4S*)-2-[2-[(3-carboxyphenyl)carbamoyl]-pyrrolidinyl-4-thio]-6-(1-hydroxyethyl)-1-methylcarbapenem-3-carboxylic acid monosodium salt]: the “Stability compared between solid forms (conclusion from Table 5)” value (from here on “Stability compared between solid forms”) is “comparable stability, which is more stable than the amorphous product and the crystalline form D”. For the same molecule, for the setting “Freezing −20° C., month 0”, the Content is 99.1% and the Total impurity is listed as 0.8%. Where the note is “Freezing −20° C., month 3”, this molecule showed a Content of 99.0% and a Total impurity of 0.8%. For the setting “Freezing −20° C., month 6”, this molecule registered a Content of 99.1% and a Total impurity of 0.8%. Further, for the setting “Freezing −20° C., month 9”, the Content turned out to be 99.0% and the Total impurity is 0.8%. Besides, where the note is “Freezing −20° C., month 12”, the Content amounted to 98.9% and the Total impurity came to 0.8%. Besides, for the setting “Refrigerating 6° C., month 0”, the Content is reported as 99.1% and the Total impurity is recorded as 0.8%. Moreover, for the setting “Refrigerating 6° C., month 3”, the Content is 98.5% and the Total impurity is 1.3%. For the same molecule, where the note is “Refrigerating 6° C., month 6”, the Content came out at 98.1% and the Total impurity was 1.6%. For the setting “Refrigerating 6° C., month 9”, the Content was determined as 97.5% and the Total impurity is on record as 2.1%. For the setting “Refrigerating 6° C., month 12”, the Content is recorded as 96.8% and the Total impurity is given as 3.2%.

For the molecule `C[C@@H](O)[C@H]1C(=O)N2C(C(=O)[O-])=C(S[C@@H]3CN[C@H](C(=O)Nc4cccc(C(=O)O)c4)C3)[C@H](C)[C@H]12.[Na+]` [Amorphous, ertapenem sodium], the Content reads like this: (Freezing −20° C., month 0) 98.5%; (Freezing −20° C., month 3) 98.4%; (Freezing −20° C., month 6) 98.5%; (Freezing −20° C., month 9) 98.2%; (Freezing −20° C., month 12) 98.1%; (Refrigerating 6° C., month 0) 98.5%. The Content was found to be 97.9% (Refrigerating 6° C., month 3); 94.5% (Refrigerating 6° C., month 6); 92.3% (Refrigerating 6° C., month 9); 90.1% (Refrigerating 6° C., month 12). Moreover, the Total impurity reads like this: (Freezing −20° C., month 0) 1.2%; (Freezing −20° C., month 3) 1.2%; (Freezing −20° C., month 6) 1.3%; (Freezing −20° C., month 9) 1.5%; (Freezing −20° C., month 12) 1.7%; (Refrigerating 6° C., month 0) 1.2%. The molecule further registered a Total impurity (Refrigerating 6° C., month 3) of 2.1%; a Total impurity (Refrigerating 6° C., month 6) of 5.3%; a Total impurity (Refrigerating 6° C., month 9) of 7.1%; a Total impurity (Refrigerating 6° C., month 12) of 9.3%.

On to `C[C@@H](O)[C@H]1C(=O)N2C(C(=O)[O-])=C(S[C@@H]3CN[C@H](C(=O)Nc4cccc(C(=O)O)c4)C3)[C@H](C)[C@H]12.[Na+]` [Crystalline form A, ertapenem sodium], for which the “Stability compared between solid forms” value is “comparable stability, which is more stable than the amorphous product and the crystalline form D”. Also, where the note is “Freezing −20° C., month 0”, the Content came out at 99.2% and the Total impurity is listed as 0.7%. For the setting “Freezing −20° C., month 3”, the Content is listed as 99.2% and the Total impurity amounted to 0.7%. Moreover, under “Freezing −20° C., month 6”, the Content is given as 99.1% and the Total impurity is 0.7%. For the setting “Freezing −20° C., month 9”, this molecule showed a Content of 99.2% and a Total impurity of 0.7%. Moreover, where the note is “Freezing −20° C., month 12”, the Content stood at 99.1% and the Total impurity was found to be 0.7%. In addition, for the setting “Refrigerating 6° C., month 0”, the Content came out at 99.2% and the Total impurity came to 0.7%. Besides, for the setting “Refrigerating 6° C., month 3”, the Content is listed as 98.6% and the Total impurity is listed as 1.2%. For the setting “Refrigerating 6° C., month 6”, this molecule returned a Content of 98.1% and a Total impurity of 1.5%. For the same molecule, where the note is “Refrigerating 6° C., month 9”, the Content came out at 97.6% and the Total impurity came to 2.0%. For the setting “Refrigerating 6° C., month 12”, this molecule registered a Content of 96.9% and a Total impurity of 3.0%.

Regarding `C[C@@H](O)[C@H]1C(=O)N2C(C(=O)[O-])=C(S[C@@H]3CN[C@H](C(=O)Nc4cccc(C(=O)O)c4)C3)[C@H](C)[C@H]12.[Na+]` [Crystalline form B, ertapenem sodium], the “Stability compared between solid forms” value is “comparable stability, which is more stable than the amorphous product and the crystalline form D”. Under “Freezing −20° C., month 0”, this molecule came in with a Content of 99.1% and a Total impurity of 0.8%. Where the note is “Freezing −20° C., month 3”, the Content was found to be 99.1% and the Total impurity came out at 0.8%. Where the note is “Freezing −20° C., month 6”, this molecule showed a Content of 99.0% and a Total impurity of 0.9%. Under “Freezing −20° C., month 9”, this molecule yielded a Content of 99.0% and a Total impurity of 0.8%. Where the note is “Freezing −20° C., month 12”, the Content is reported as 98.9% and the Total impurity is on record as 0.9%. Under “Refrigerating 6° C., month 0”, this molecule came in with a Content of 99.1% and a Total impurity of 0.8%. Under “Refrigerating 6° C., month 3”, this molecule yielded a Content of 98.3% and a Total impurity of 1.4%. Where the note is “Refrigerating 6° C., month 6”, the Content worked out at 98.0% and the Total impurity is 1.7%. Further, under “Refrigerating 6° C., month 9”, the Content amounted to 97.5% and the Total impurity stood at 2.1%. For the same molecule, where the note is “Refrigerating 6° C., month 12”, the Content was 96.6% and the Total impurity was 3.3%.

As to `C[C@@H](O)[C@H]1C(=O)N2C(C(=O)[O-])=C(S[C@@H]3CN[C@H](C(=O)Nc4cccc(C(=O)O)c4)C3)[C@H](C)[C@H]12.[Na+]` [Crystalline form C, ertapenem sodium], the “Stability compared between solid forms” value is “comparable stability, which is more stable than the amorphous product and the crystalline form D”. For the setting “Freezing −20° C., month 0”, this molecule showed a Content of 99.2% and a Total impurity of 0.8%. For the same molecule, for the setting “Freezing −20° C., month 3”, the Content stood at 99.2% and the Total impurity is 0.8%. Further, under “Freezing −20° C., month 6”, the Content turned out to be 99.1% and the Total impurity is 0.8%. Further, under “Freezing −20° C., month 9”, the Content worked out at 99.2% and the Total impurity came to 0.8%. For the setting “Freezing −20° C., month 12”, this molecule gave a Content of 99.2% and a Total impurity of 0.8%. For the setting “Refrigerating 6° C., month 0”, this molecule registered a Content of 99.2% and a Total impurity of 0.8%. Besides, under “Refrigerating 6° C., month 3”, the Content was 98.7% and the Total impurity came to 1.1%. Besides, under “Refrigerating 6° C., month 6”, the Content was 98.2% and the Total impurity amounted to 1.4%. Under “Refrigerating 6° C., month 9”, this molecule returned a Content of 97.8% and a Total impurity of 1.9%. Where the note is “Refrigerating 6° C., month 12”, this molecule gave a Content of 96.9% and a Total impurity of 3.0%.

`C[C@@H](O)[C@H]1C(=O)N2C(C(=O)[O-])=C(S[C@@H]3CN[C@H](C(=O)Nc4cccc(C(=O)O)c4)C3)[C@H](C)[C@H]12.[Na+]` [Crystalline form D, ertapenem sodium] gave a Content (Freezing −20° C., month 0) of 98.8%; a Content (Freezing −20° C., month 3) of 98.7%; a Content (Freezing −20° C., month 6) of 98.7%; a Content (Freezing −20° C., month 9) of 98.6%; a Content (Freezing −20° C., month 12) of 98.5%; a Content (Refrigerating 6° C., month 0) of 98.8%. This molecule also yielded a Content (Refrigerating 6° C., month 3) of 98.0%; a Content (Refrigerating 6° C., month 6) of 96.8%; a Content (Refrigerating 6° C., month 9) of 94.7%; a Content (Refrigerating 6° C., month 12) of 93.2%. The Total impurity by setting is: (Freezing −20° C., month 0) 1.0%; (Freezing −20° C., month 3) 1.1%; (Freezing −20° C., month 6) 1.1%; (Freezing −20° C., month 9) 1.2%; (Freezing −20° C., month 12) 1.2%; (Refrigerating 6° C., month 0) 1.0%. Moreover, the Total impurity stood at 1.9% (Refrigerating 6° C., month 3); 3.1% (Refrigerating 6° C., month 6); 4.6% (Refrigerating 6° C., month 9); 6.5% (Refrigerating 6° C., month 12).

Source of the values: patent publication US9012628B2, “Crystalline form of ertapenem sodium and preparation method therefor” (CSPC Zhongqi Pharmaceutical Technology (Shijiazhuang) Co. …, priority 2010, dated 2015).
